Reference: patent US10265310B2, “6-membered cyclic amines or lactames substituted with urea and phenyl” (GRÜNENTHAL GMBH, priority 2016, dated 2019)

Tests used:
[1] = molecular target: FPR1 (Homo sapiens (Human), UniProt P21462); experiment: Agonistic activity (calcium FLIPR) in hFPR1-Gα15-CHO cells; assay type: cell-based; details: FLIPR Calcium 5 dye fluorescence, agonistic response
Method: (§1) Cells (hFPR1-Gα15-CHO or hFPR2-Aq-CHO) are suspended in 10 mL of respective complete medium (F12(1×) HAM media; 10% HI-FBS; 0.1 mg/ml Hygromycin B and 0.2 mg/ml Zeocin [for hFPR1 only]; 0.4 mg/mL Geneticin and 0.25 mg/ml Zeocin [for hFPR2-Aq only]) and viability is checked using Trypan Blue exclusion. After washing, the cells are plated at 10,000 cells per well in 40 μL complete medium in a 384-well sterile clear bottom black plate and incubated in a 5% CO2 incubator at 37° C. for 18 hours. Plating media is removed from each well by decanting and gentle tapping before 30 μL of 0.5× Calcium 5 dye solution (0.5×FLIPR Calcium 5 dye (Molecular devices, R8186)); HBSS; 20 mM HEPES; 2.5 mM Probenecid; 0.025% Pluronic F-127; pH adjusted to 7.4) is added to each well and the plate is then incubated at 37° C. for 30 minutes. For the assay the plate is equilibrated at room temperature for 10 minutes before placing it in the FLIPR. Compounds are dissolved in DMSO and serially diluted over an 11 point half log (3.16 fold) dilution (2 mM to 20 nM). Compounds are then diluted 1:50 in assay buffer (HBSS; 20 mM HEPES; 2.5 mM Probenecid; 0.05% gelatin; 0.1% BSA; pH adjusted to 7.4) just before performing the assay. Compounds are finally added to the respective wells of the cell plate (final assay concentration 10 μM to 100 pM) using the FLIPR (e.g. FLIPR-Tetra, Molecular Devices) and fluorescence readings are captured for 5 minutes. The increase in fluorescence from the basal reading in the presence of the compounds is compared with that of the control wells (wells having no compound) to calculate the activity of the compounds. The EC50 values of the compounds can be determined using e.g. Graph pad Prism software.
(§2) Assay Method for Measuring Agonistic Activity of Compounds in hFPR1-Gα15-CHO and hFPR2-Aq-CHO Cell
(§3) Cryo-vial containing 6×10^6 cells (hFPR1-Gα15-CHO or hFPR2-Aq-CHO) was thawed in a 37° C. water bath. Cells were suspended in 10 ml of respective complete growth media (F12(1×) HAM media (Gibco; Cat#11765); 10% HI-FBS (Gibco; Cat#10082); 0.1 mg/ml Hygromycin B (Invitrogen; Cat#10687-010) [for hFPR1 only]; 0.2 mg/ml Zeocin (Invitrogen; Cat#R25001) [for hFPR1 only]; 0.4 mg/ml Geneticin (Gibco; Cat#10131) [for hFPR2-Aq only]; 0.25 mg/ml Zeocin (Invitrogen; Cat#R25001) [for hFPR2-Aq only]) in a 15 ml centrifuge tube. The cell viability was checked with the help of Trypan Blue dye. Upon washing the cells, those were plated in a 384-well sterile clear bottom black plate (Greiner Bioone Cat#781091) so that, each well contained 10,000 cells in 40 μl complete growth media. The plate was incubated in a 5% CO2 incubator at 37° C. for 18 hours.
(§4) Before assay on the next day, the cell plating media was removed from each well of the plate by decanting and gentle tapping. 30 μl, 0.11 of 0.5× Calcium 5 dye solution (0.5×FLIPR Calcium 5 dye (Molecular devices Cat# R8186); HBSS (Invitrogen; Cat#14025); 20 mM HEPES (Sigma; Cat#H0887); 2.5 mM Probenecid (Sigma; Cat#P8761); 0.025% Pluronic F-127 (Sigma; Cat#P2443); pH adjusted to 7.4) was added to each well. The plate was then incubated at 37° C. for 30 minutes. Following which the plate was equilibrated at room temperature for 10 minutes before placing it in a 384 well FLIPR for assay. Compounds were dissolved in DMSO and serially diluted following 11 point half log (3.16 fold) dilution with a starting concentration of 2 mM (Final assay concentration 10 μM). Aliquots of above mentioned each dilution was mixed with assay buffer (HBSS (Invitrogen; Cat#14025); 20 mM HEPES (Sigma; Cat#H0887); 2.5 mM Probenecid (Sigma; Cat#P8761); 0.05% gelatin (Sigma; Cat#G1890); 0.1% BSA (Sigma; Cat#A3059); pH adjusted to 7.4) just before performing the assay. Compounds were added to the respective wells of the assay ready cell plate with the help of the FLIPR (FLIPR Tetra) and fluorescence readings were captured for 5 minutes to measure any agonistic response of the compounds. […]

[2] = molecular target: FPR2 (Homo sapiens (Human), UniProt P25090); experiment: Agonistic activity (calcium FLIPR) in hFPR2-Aq-CHO cells; assay type: cell-based; details: FLIPR Calcium 5 dye fluorescence, agonistic response
Sequence of FPR2 (P25090 whole entry): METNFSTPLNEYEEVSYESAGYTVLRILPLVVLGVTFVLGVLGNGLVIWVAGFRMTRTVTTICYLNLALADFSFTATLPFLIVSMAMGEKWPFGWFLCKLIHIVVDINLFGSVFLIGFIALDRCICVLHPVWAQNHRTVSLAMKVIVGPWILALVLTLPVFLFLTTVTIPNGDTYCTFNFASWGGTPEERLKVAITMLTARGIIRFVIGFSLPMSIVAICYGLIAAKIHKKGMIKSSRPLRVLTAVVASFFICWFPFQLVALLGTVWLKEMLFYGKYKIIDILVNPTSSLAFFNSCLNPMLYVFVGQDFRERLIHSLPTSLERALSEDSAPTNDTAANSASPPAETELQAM
Method: as §1, §2, §3, §4

Sequence of FPR1 (P21462 whole entry): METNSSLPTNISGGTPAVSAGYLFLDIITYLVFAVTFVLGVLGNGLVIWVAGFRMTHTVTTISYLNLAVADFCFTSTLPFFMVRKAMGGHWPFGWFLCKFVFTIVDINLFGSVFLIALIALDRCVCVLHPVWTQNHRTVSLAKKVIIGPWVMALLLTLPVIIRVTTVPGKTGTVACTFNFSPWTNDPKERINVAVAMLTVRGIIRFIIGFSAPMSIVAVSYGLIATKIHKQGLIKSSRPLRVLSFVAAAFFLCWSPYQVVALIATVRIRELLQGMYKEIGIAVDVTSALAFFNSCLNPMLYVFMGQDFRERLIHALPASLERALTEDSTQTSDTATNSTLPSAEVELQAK

Work on COc1cc(F)c(C2CCNCC2NC(=O)Nc2ccc(Cl)cc2)c(F)c1 (single isomer, unassigned; ent1) [Example 36, trans-ent1-1-(4-chlorophenyl)-3-(4-(2,6-difluoro-4-methoxyphenyl)piperidin-3-yl)urea] yielded an EC50 [1] of 1 to 1000 nM and an EC50 [2] of under 1 nM.

COc1cc(F)c(C2CCN(C(=O)C3CC3)CC2NC(=O)Nc2ccc(Cl)cc2)c(F)c1 (single isomer, unassigned; ent1) [Example 39, trans-ent1-1-(4-chlorophenyl)-3-(1-(cyclopropanecarbonyl)-4-(2,6-difluoro-4-methoxyphenyl)piperidin-3-yl)urea] was tested, and the EC50 [1] was 1 to 1000 nM and the EC50 [2] was under 1 nM.

In the case of COc1ccc(C2CC(=O)NCC2NC(=O)Nc2ccc(Cl)cc2)c(F)c1 (single isomer, unassigned; ent1) [Example 42, trans-ent1-1-(4-chlorophenyl)-3-(4-(2-fluoro-4-methoxyphenyl)-6-oxopiperidin-3-yl)urea], the EC50 [1] is reported as 1 to 1000 nM and the EC50 [2] is reported as under 1 nM.

COc1cc(F)c(C2CC(=O)NCC2NC(=O)Nc2ccncc2)c(F)c1 (single isomer, unassigned; ent1) [Example 47, ent1-1-(4-(2,6-difluoro-4-methoxyphenyl)-6-oxopiperidin-3-yl)-3-(pyridin-4-yl)urea] gave an EC50 [1] of 1 to 1000 nM and an EC50 [2] of 1 to 1000 nM.

In the case of COc1cc(F)c(C2CC(=O)NCC2NC(=O)Nc2ccc(Cl)cc2)c(F)c1 (single isomer, unassigned; ent1) [Example 49, trans-ent1-1-(4-chlorophenyl)-3-(4-(2,6-difluoro-4-methoxyphenyl)-6-oxopiperidin-3-yl)urea], the EC50 [1] is reported as 1 to 1000 nM and the EC50 [2] is reported as 1 to 1000 nM.

COCCN1CC(NC(=O)Nc2ccc(Cl)cc2)C(c2ccc(OC)cc2F)CC1=O (single isomer, unassigned; ent1) [Example 59, trans-ent1-1-(4-Chlorophenyl)-3-[4-(2-fluoro-4-methoxy-phenyl)-1-(2-methoxy-ethyl)-6-oxo-piperidin-3-yl]-urea] was tested, and the EC50 [1] was 1 to 1000 nM and the EC50 [2] was under 1 nM.

COc1ccc(C2CC(=O)N(CC(F)F)CC2NC(=O)Nc2ccc(Cl)cc2)c(F)c1 (single isomer, unassigned; ent1) [Example 61, trans-ent1-1-(4-Chlorophenyl)-3-[1-(2,2-difluoro-ethyl)-4-(2-fluoro-4-methoxy-phenyl)-6-oxo-piperidin-3-yl]-urea] was tested, and the EC50 [1] was under 1 nM and the EC50 [2] was under 1 nM.

COCCN1CC(NC(=O)Nc2ccc(Cl)cc2)C(c2ccc(F)cc2F)CC1=O (single isomer, unassigned; ent1) [Example 63, trans-ent1-1-(4-Chlorophenyl)-3-[4-(2,4-difluoro-phenyl)-1-(2-methoxy-ethyl)-6-oxo-piperidin-3-yl]-urea] was tested, and the EC50 [1] was 1 to 1000 nM and the EC50 [2] was 1 to 1000 nM.

Compound O=C(Nc1ccc(Cl)cc1)NC1CN(CC(F)F)C(=O)CC1c1ccc(F)cc1F (single isomer, unassigned; ent1) [Example 65, trans-ent1-1-(4-Chlorophenyl)-3-[1-(2,2-difluoro-ethyl)-4-(2,4-difluoro-phenyl)-6-oxo-piperidin-3-yl]-urea] has an EC50 [1] of 1 to 1000 nM and an EC50 [2] of 1 to 1000 nM.

O=C1CC(c2ccc(F)cc2F)C(NC(=O)Nc2ccc(Cl)cc2)CN1 (single isomer, unassigned; ent1) [Example 67, trans-ent1-1-(4-Chlorophenyl)-3-[4-(2,4-difluoro-phenyl)-6-oxo-piperidin-3-yl]-urea] gave an EC50 [1] of 1 to 1000 nM and an EC50 [2] of 1 to 1000 nM.

COc1ccc(C2CC(=O)NCC2NC(=O)Nc2ccc(Cl)cc2)cc1 (single isomer, unassigned; ent1) [Example 76, trans-ent1-1-(4-chlorophenyl)-3-(4-(4-methoxyphenyl)-6-oxopiperidin-3-yl)urea] showed an EC50 [1] of 1 to 1000 nM and an EC50 [2] of under 1 nM.

With O=C(Nc1ccc(Cl)cc1)NC1CNCCC1c1ccccc1 (single isomer, unassigned; ent1) [Example 80, trans-ent1-1-(4-chlorophenyl)-3-(4-phenylpiperidin-3-yl)urea] the EC50 [1] was 1 to 1000 nM and the EC50 [2] was 1 to 1000 nM.

For O=C(Nc1ccc(Cl)cc1)NC1CN(C(=O)C2CC2)CCC1c1ccccc1 (single isomer, unassigned; ent1) [Example 83, trans-ent1-1-(4-chlorophenyl)-3-(1-(cyclopropanecarbonyl)-4-phenylpiperidin-3-yl)urea], the EC50 [1] was 1 to 1000 nM and the EC50 [2] was 1 to 1000 nM.

In the case of COc1ccc(C2CCN(C(=O)C3CC3)CC2NC(=O)Nc2ccc(Cl)cc2)c(F)c1 (single isomer, unassigned; ent1) [Example 86, trans-ent1-1-(4-chlorophenyl)-3-(1-(cyclopropanecarbonyl)-4-(2-fluoro-4-methoxyphenyl)piperidin-3-yl)urea], the EC50 [1] is reported as under 1 nM and the EC50 [2] is reported as under 1 nM.

O=C1CC(c2ccc(Cl)cc2)C(NC(=O)Nc2ccc(Cl)cc2)CN1 (single isomer, unassigned; ent1) [Example 91, trans-ent1-1-(4-chlorophenyl)-3-(4-(4-chlorophenyl)-6-oxopiperidin-3-yl)urea] showed an EC50 [1] of 1 to 1000 nM and an EC50 [2] of 1 to 1000 nM.

COc1cc(F)c(C2CCNCC2NC(=O)Nc2ccc(Cl)cc2)c(F)c1 (single isomer, unassigned; ent2) [Example 37, trans-ent2-1-(4-chlorophenyl)-3-(4-(2,6-difluoro-4-methoxyphenyl)piperidin-3-yl)urea] gave an EC50 [1] of 1 to 1000 nM and an EC50 [2] of 1 to 1000 nM.

COc1cc(F)c(C2CCN(C(=O)C3CC3)CC2NC(=O)Nc2ccc(Cl)cc2)c(F)c1 (single isomer, unassigned; ent2) [Example 40, trans-ent2-1-(4-chlorophenyl)-3-(1-(cyclopropanecarbonyl)-4-(2,6-difluoro-4-methoxyphenyl)piperidin-3-yl)urea] was tested, and the EC50 [1] was 1 to 1000 nM and the EC50 [2] was 1 to 1000 nM.

COc1ccc(C2CC(=O)NCC2NC(=O)Nc2ccc(Cl)cc2)c(F)c1 (single isomer, unassigned; ent2) [Example 43, trans-ent2-1-(4-chlorophenyl)-3-(4-(2-fluoro-4-methoxyphenyl)-6-oxopiperidin-3-yl)urea] was tested, and the EC50 [1] was 1 to 1000 nM and the EC50 [2] was 1 to 1000 nM.

For COc1ccc(C2CCNCC2NC(=O)Nc2ccc(Cl)cc2)c(F)c1 (single isomer, unassigned; ent2) [Example 46, ent2-1-(4-chlorophenyl)-3-(4-(2-fluoro-4-methoxyphenyl)piperidin-3-yl)urea], the EC50 [1] was 1 to 1000 nM and the EC50 [2] was 1 to 1000 nM.

COc1cc(F)c(C2CC(=O)NCC2NC(=O)Nc2ccncc2)c(F)c1 (single isomer, unassigned; ent2) [Example 48, ent2-1-(4-(2,6-difluoro-4-methoxyphenyl)-6-oxopiperidin-3-yl)-3-(pyridin-4-yl)urea] gave an EC50 [1] of 1 to 1000 nM and an EC50 [2] of 1 to 1000 nM.

Compound COc1cc(F)c(C2CC(=O)NCC2NC(=O)Nc2ccc(Cl)cc2)c(F)c1 (single isomer, unassigned; ent2) [Example 50, trans-ent2-1-(4-chlorophenyl)-3-(4-(2,6-difluoro-4-methoxyphenyl)-6-oxopiperidin-3-yl)urea] has an EC50 [1] of 1 to 1000 nM and an EC50 [2] of under 1 nM.
